{"source": "patent US20240336604A1", "about": "(THE UNITED STATES OF AMERICA, AS REPRESENTED BY THE …, priority 2021, published 2024)", "format_in_all_cases": "cell-based", "key": {"D2 DAR [1]": {"target": "T1, D2 DAR (Homo sapiens, UniProt P14416)", "T1 sequence (P14416 whole entry)": "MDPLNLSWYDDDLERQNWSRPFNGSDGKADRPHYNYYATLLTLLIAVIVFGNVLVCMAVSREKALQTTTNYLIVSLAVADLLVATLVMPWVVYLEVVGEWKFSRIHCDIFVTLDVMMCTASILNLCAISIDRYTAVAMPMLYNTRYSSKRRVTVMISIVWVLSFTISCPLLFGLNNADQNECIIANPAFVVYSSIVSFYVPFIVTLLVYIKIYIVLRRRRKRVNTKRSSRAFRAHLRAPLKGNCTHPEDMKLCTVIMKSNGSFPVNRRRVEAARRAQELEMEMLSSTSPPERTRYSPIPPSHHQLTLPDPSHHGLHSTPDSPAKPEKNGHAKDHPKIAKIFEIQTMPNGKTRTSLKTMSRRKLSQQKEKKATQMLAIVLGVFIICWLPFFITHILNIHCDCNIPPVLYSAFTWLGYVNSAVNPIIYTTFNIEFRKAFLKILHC", "assay": "ERK1/2 phosphorylation assay, D2 DAR", "parameters": "host or cells: CHO", "conditions": "FIG. 3D right", "experimental": "ERK1/2 Phosphorylation assay: ERK1/2 phosphorylation was measured using the Alphascreen SureFire Ultra ERK kit (PerkinElmer, Waltham, USA). CHO-K1 cells stably expressing either the D2 DAR or D3 DAR were seeded into 384-well small volume white plates at a density of 40,000 cells/well in serum-free Ham's F12 media overnight. […] The plate was shaken for 10 min at RT, followed by the addition of Surefire activation buffer, Surefire reaction buffer, Alphascreen acceptor beads, and Alphascreen donor beads in ratios specified by the manufacturer. The plate was incubated in the dark for 2 h, then read using a PHERAstar FSX Microplate Reader (BMG Labtech)."}, "[2]": {"test_system": "other dopamine receptor subtypes", "assay": "DiscoverX β-arrestin assay, other dopamine receptors", "conditions": "FIG. 1A", "excerpt": "For a secondary-screen and selectivity assays, DAR PathHunter®-arrestin GPCR cell lines from DiscoverX (Fremont, CA) were used. In the D2 DAR PathHunter®-arrestin GPCR cell line, the D2 DAR is overexpressed and fused with a small 42-amino acid fragment of β-galactosidase called ProLink™ on a CHO cellular background expressing a fusion protein of β-arrestin and a larger N-terminal deletion mutant of β-galactosidase (“enzyme acceptor”). When the D2 DAR is activated by dopamine, it stimulates binding of β-arrestin to the ProLink-tagged DAR and the two complementary parts of β-galactosidase form a functional enzyme. When substrate (PathHunter™ Detection reagent) is added, β-galactosidase hydrolyzes it and generates a chemiluminescent signal."}, "D2 DAR [3]": {"target": "T1, D2 DAR", "assay": "cAMP CAMYEL biosensor assay, D2 DAR", "conditions": "FIG. 3C right", "experimental": "(§1) cAMP CAMYEL biosensor assay: HEK293 cells transiently expressing the D2 DAR or D3 DAR and the CAMYEL cAMP biosensor (yellow fluorescence protein-Epac-Rluc) were harvested with EBSS, plated in 96-well white plates at 20,000 cells/well in DPBS and incubated at room temperature for 45 min. […] BRET signal was determined by quantifying and calculating the ratio of the light emitted by mVenus (525 nm) over that emitted by RLuc8 (485 nm) using a PHERAstar FSX Microplate Reader (BMG Labtech)."}, "D2 DAR [4]": {"target": "T1, D2 DAR", "assay": "Go BRET activation assay, D2 DAR", "conditions": "FIG. 3B right", "experimental": "as §1, with “Briefly, HEK293T” for “cAMP CAMYEL biosensor assay: HEK293”, “expressing either” for “expressing”, “GαoA-Rluc8, untagged-β1, and mVenus-γ2” for “the CAMYEL cAMP biosensor (yellow fluorescence protein-Epac-Rluc)”, “RT” for “room temperature”"}, "D3 DAR": {"target": "D3 DAR (Homo sapiens, UniProt P35462)", "sequence (P35462 whole entry)": "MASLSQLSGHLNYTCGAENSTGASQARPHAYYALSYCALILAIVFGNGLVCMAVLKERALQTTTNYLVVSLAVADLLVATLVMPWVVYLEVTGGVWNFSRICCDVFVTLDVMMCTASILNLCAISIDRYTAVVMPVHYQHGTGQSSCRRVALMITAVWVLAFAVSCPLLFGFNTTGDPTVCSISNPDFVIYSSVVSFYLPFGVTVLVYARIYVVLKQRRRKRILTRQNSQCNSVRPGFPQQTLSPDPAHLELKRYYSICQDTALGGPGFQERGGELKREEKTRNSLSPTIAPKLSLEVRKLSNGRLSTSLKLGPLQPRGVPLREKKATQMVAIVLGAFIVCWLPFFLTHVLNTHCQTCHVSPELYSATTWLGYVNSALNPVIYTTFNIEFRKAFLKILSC", "assay": "Functional curve-shift assays using the DiscoverX β-arrestin recruitment assay", "parameters": "host or cells: CHO", "excerpt": "To further assess the mechanism of action of Cmp. […] 1 (FIGS. 4B and 4D). […] Average curves are shown (mean±SEM from at least 3 experiments each performed in triplicate). […] In contrast, increasing concentrations of Cmp.\n1. FIG. 6A-C panels show concentration-response curves of dopamine in the absence or presence of increasing concentrations of compound. Cmp. […] 18 (FIG. 6A), Cmp. 5 (FIG. 6B), and Cmp. 17 (FIG. 6C), respectively. Average curves are shown (mean±SEM from at least 3 experiments, each performed in triplicate).\nA D3 DAR β-arrestin cell line from DiscoverX (Fremont, CA) was used as described in the protocol below (Table 2). A CHO cell line engineered to overexpress the D3 DAR fused with a small 42-amino acid fragment of β-galactosidase called ProLink™ and a fusion protein consisting of β-arrestin and a larger N-terminal deletion mutant of β-galactosidase was used (DiscoverX catalogue number 93-0579C2). When the D3 DAR is activated by dopamine, it stimulates binding of β-arrestin to ProLink-tagged D3 DARs, and the two complementary parts of β-galactosidase form a functional enzyme. When substrate (PathHunter® Detection reagent, DiscoverX 93-0001) is added, β-galactosidase hydrolyzes it and generates a chemiluminescent signal."}}, "note": "Read-outs that look alike come from different tables or passages of the source."}
{"smiles": "Cc1ccc(NS(=O)(=O)c2c(C)[nH]c(C)c2C(=O)N2CCCC2)cc1Cl", "note": "[Cmp. 1]", "values": [{"measurement": "antagonist activity at the D2 DAR, pERK", "setting": "D2 DAR [1]", "result": "lacked antagonist activity"}, {"measurement": "activity at other dopamine receptor subtypes", "setting": "[2]", "result": "no activity"}, {"measurement": "antagonist activity at the D2 DAR, cAMP CAMYEL", "setting": "D2 DAR [3]", "result": "lacked antagonist activity"}, {"measurement": "antagonist activity at the D2 DAR, Go activation", "setting": "D2 DAR [4]", "result": "lacked antagonist activity"}, {"measurement": "IC50", "setting": "D3 DAR; agonist dopamine, read-out: Functional IC50 for decreasing the Emax of dopamine", "result": 17, "unit": "µM"}, {"measurement": "IC50", "setting": "D3 DAR; agonist pramipexole, read-out: Functional IC50 for decreasing the Emax of pramipexole", "result": 14, "unit": "µM"}, {"measurement": "mode of antagonism in curve-shift assays", "setting": "D3 DAR; versus agonist (dopamine, pramipexole)", "result": "behaves in a non-competitive manner"}]}
